Results from ChEMBL document CHEMBL3774345, “Synthesis of new diarylamides with pyrimidinyl pyridine scaffold and evaluation of their anti-proliferative effect on cancer cell lines” (Bioorg Med Chem Lett, 2016).

Key:
SR [1] = test: Cytotoxicity against human SR cells assessed as growth inhibition at 10 uM after 24 hrs by SRB assay; type: functional; conditions: read-out: GI
MCF7 [2] = test: Cytotoxicity against human MCF7 cells assessed as cell growth at 10^-8 M after 24 hrs by SRB assay; type: functional; conditions: MCF7, 24 h, read-out: Activity
[3] = Cytotoxicity against human RPMI8226 cells assessed as cell growth at 10^-4 M after 24 hrs by SRB assay; type: functional; conditions: RPMI-8226, 24 h, read-out: Activity
[4] = Cytotoxicity against human SF295 cells assessed as cell growth at 10^-7 M after 24 hrs by SRB assay; type: functional; conditions: SF-295, 24 h, read-out: Activity
ACHN = test: Cytotoxicity against human ACHN cells assessed as cell growth at 10^-7 M after 24 hrs by SRB assay; type: functional; conditions: read-out: Activity
NCI-H522 [5] = test: Cytotoxicity against human NCI-H522 cells after 24 hrs by SRB assay; type: functional, cell-based; conditions: NCI-H522, 24 h
[6] = Cytotoxicity against human LOXIMVI cells after 24 hrs by SRB assay; type: functional, cell-based; conditions: LOX IMVI
[7] = Cytotoxicity against human HOP92 cells assessed as cell growth at 10^-4 M after 24 hrs by SRB assay; type: functional; conditions: HOP-92, 24 h, read-out: Activity
[8] = Cytotoxicity against human HCC2998 cells assessed as cell growth at 10^-4 M after 24 hrs by SRB assay; type: functional; conditions: HCC 2998, 24 h, read-out: Activity
[9] = Cytotoxicity against human Hs 578T cells assessed as cell growth at 10^-7 M after 24 hrs by SRB assay; type: functional; conditions: read-out: Activity
NCI-H226 = test: Cytotoxicity against human NCI-H226 cells assessed as cell growth at 10^-6 M after 24 hrs by SRB assay; type: functional; conditions: NCI-H226, 24 h, read-out: Activity
SK-MEL-5 = test: Cytotoxicity against human SK-MEL-5 cells assessed as cell growth at 10^-4 M after 24 hrs by SRB assay; type: functional; conditions: SK-MEL-5, 24 h, read-out: Activity
MCF7 [10] = test: Cytotoxicity against human MCF7 cells assessed as cell growth at 10^-4 M after 24 hrs by SRB assay; type: functional; conditions: MCF7, 24 h, read-out: Activity
HT-29 = test: Cytotoxicity against human HT-29 cells assessed as cell growth at 10^-6 M after 24 hrs by SRB assay; type: functional; conditions: HT-29, 24 h, read-out: Activity
[11] = Cytotoxicity against human SF268 cells assessed as cell growth at 10^-6 M after 24 hrs by SRB assay; type: functional; conditions: SF-268, 24 h, read-out: Activity
[12] = Cytotoxicity against human UACC257 cells assessed as cell growth at 10^-6 M after 24 hrs by SRB assay; type: functional; conditions: UACC-257, 24 h, read-out: Activity
SN12C = test: Cytotoxicity against human SN12C cells assessed as cell growth at 10^-6 M after 24 hrs by SRB assay; type: functional; conditions: read-out: Activity
[13] = Cytotoxicity against human UO31 cells assessed as cell growth at 10^-6 M after 24 hrs by SRB assay; type: functional; conditions: UO-31, 24 h, read-out: Activity
SK-MEL-2 = test: Cytotoxicity against human SK-MEL-2 cells after 24 hrs by SRB assay; type: functional; conditions: SK-MEL-2, 24 h
[14] = Cytotoxicity against human IGROV1 cells after 24 hrs by SRB assay; type: functional; conditions: IGROV-1, 24 h
SR [15] = test: Cytotoxicity against human SR cells after 24 hrs by SRB assay; type: functional
NCI-H23 = test: Cytotoxicity against human NCI-H23 cells assessed as cell growth at 10^-8 M after 24 hrs by SRB assay; type: functional; conditions: NCI-H23, 24 h, read-out: Activity
NCI-H522 [16] = test: Cytotoxicity against human NCI-H522 cells assessed as cell growth at 10^-8 M after 24 hrs by SRB assay; type: functional; conditions: NCI-H522, 24 h, read-out: Activity
[17] = Cytotoxicity against human HCT15 cells assessed as cell growth at 10^-8 M after 24 hrs by SRB assay; type: functional; conditions: HCT-15, 24 h, read-out: Activity
T47D = test: Cytotoxicity against human T47D cells assessed as cell growth at 10^-6 M after 24 hrs by SRB assay; type: functional; conditions: read-out: Activity
[18] = Cytotoxicity against human HL-60(TB) cells assessed as cell growth at 10^-5 M after 24 hrs by SRB assay; type: functional; conditions: HL-60, 24 h, read-out: Activity
[19] = Cytotoxicity against human RPMI8226 cells assessed as cell growth at 10^-5 M after 24 hrs by SRB assay; type: functional; conditions: RPMI-8226, 24 h, read-out: Activity
SR [20] = test: Cytotoxicity against human SR cells assessed as cell growth at 10^-5 M after 24 hrs by SRB assay; type: functional; conditions: read-out: Activity
NCI-H522 [21] = test: Cytotoxicity against human NCI-H522 cells assessed as cell growth at 10^-5 M after 24 hrs by SRB assay; type: functional; conditions: NCI-H522, 24 h, read-out: Activity
[22] = Cytotoxicity against human COLO205 cells assessed as cell growth at 10^-5 M after 24 hrs by SRB assay; type: functional; conditions: COLO 205, 24 h, read-out: Activity
KM12 = test: Cytotoxicity against human KM12 cells assessed as cell growth at 10^-5 M after 24 hrs by SRB assay; type: functional; conditions: KM12, 24 h, read-out: Activity
SK-MEL-28 = test: Cytotoxicity against human SK-MEL-28 cells assessed as cell growth at 10^-5 M after 24 hrs by SRB assay; type: functional; conditions: SK-MEL-28, 24 h, read-out: Activity
[23] = Cytotoxicity against human UACC257 cells assessed as cell growth at 10^-5 M after 24 hrs by SRB assay; type: functional; conditions: UACC-257, 24 h, read-out: Activity
[24] = Cytotoxicity against human OVCAR8 cells assessed as cell growth at 10^-5 M after 24 hrs by SRB assay; type: functional; conditions: OVCAR-8, 24 h, read-out: Activity
[25] = read-out: LC50 (the source's name)
[26] = read-out: pLC50 (the source's name) (converted)

COc1cc(OC)cc(C(=O)Nc2cc(-c3cccnc3)nc(NCCCN3CCOCC3)n2)c1
inhibition of growth at 10 µM (SR [1]): 42.1%

O=C(Nc1cc(-c2cccnc2)nc(NCCCN2CCOCC2)n1)c1cc(Br)cc(C(F)(F)F)c1
growth at 0.01 µM (MCF7 [2]): 95%
growth at 100 µM [3]: -24%
growth at 0.1 µM [4]: 91%
growth at 0.1 µM (ACHN): 100%
IC50 (NCI-H522 [5]): 1.95 µM
GI50 (NCI-H522 [5]; read-out: GI50): 1.95 µM
CC50 (NCI-H522 [5]; [25]): 23.3 µM
TGI (NCI-H522 [5]; read-out: TGI): 5.31 µM
GI50 (NCI-H522 [5]; read-out: pGI50 (converted)): 1.95 µM
CC50 (NCI-H522 [5]; [26]): 23.4 µM
TGI (NCI-H522 [5]; read-out: pTGI (converted)): 5.37 µM
IC50 [6]: 1.62 µM
GI50 ([6]; read-out: GI50): 1.62 µM
CC50 [6, 25]: 5.79 µM
TGI ([6]; read-out: TGI): 3.06 µM
GI50 ([6]; read-out: pGI50 (converted)): 1.62 µM
CC50 [6, 26]: 5.75 µM
TGI ([6]; read-out: pTGI (converted)): 3.09 µM
growth at 100 µM [7]: -94%
growth at 100 µM [8]: -97%
growth at 0.1 µM [9]: 94%
growth at 1 µM (NCI-H226): 84%
growth at 100 µM (SK-MEL-5): -100%
growth at 100 µM (MCF7 [10]): -75%
growth at 1 µM (HT-29): 94%
growth at 1 µM [11]: 85%
growth at 1 µM [12]: 113%
growth at 1 µM (SN12C): 101%
growth at 1 µM [13]: 69%
GI50 (SK-MEL-2; read-out: GI50): 4.52 µM
CC50 (SK-MEL-2; [25]): 45.8 µM
TGI (SK-MEL-2; read-out: TGI): 17 µM
GI50 (SK-MEL-2; read-out: pGI50 (converted)): 4.47 µM
CC50 (SK-MEL-2; [26]): 45.7 µM
TGI (SK-MEL-2; read-out: pTGI (converted)): 17 µM
GI50 ([14]; read-out: GI50): 4.67 µM
CC50 [14, 25]: 60.5 µM
TGI ([14]; read-out: TGI): 19.5 µM
GI50 ([14]; read-out: pGI50 (converted)): 4.68 µM
CC50 [14, 26]: 60.3 µM
TGI ([14]; read-out: pTGI (converted)): 19.5 µM
GI50 (SR [15]; read-out: GI50): 2.6 µM
CC50 (SR [15]; [25]): > 100 µM
TGI (SR [15]; read-out: TGI): 41.7 µM
GI50 (SR [15]; read-out: pGI50 (converted)): 2.63 µM
CC50 (SR [15]; [26]): > 100 µM
TGI (SR [15]; read-out: pTGI (converted)): 41.7 µM
growth at 0.01 µM (NCI-H23): 98%
growth at 0.01 µM (NCI-H522 [16]): 86%
growth at 0.01 µM [17]: 91%
growth at 1 µM (T47D): 88%
growth at 10 µM [18]: -27%
growth at 10 µM [19]: -1%
growth at 10 µM (SR [20]): 1%
growth at 10 µM (NCI-H522 [21]): -32%
growth at 10 µM [22]: -79%
growth at 10 µM (KM12): 14%
growth at 10 µM (SK-MEL-28): -75%
growth at 10 µM [23]: -83%
growth at 10 µM [24]: -7%
